Assay: mn = molality of the nth substance listed, in mol/kg
Details: 101.3 kPa, Liquid

COC(=O)[C@@H](N)C(C)C.Cl [methyl L-valinate hydrochloride] + O
Details	speed of sound [m/s]
278.15 K, Frequency=2 MHz, Linear variable-path acoustic interferometer, m1 = 0.0389	1431.7
278.15 K, Frequency=2 MHz, Linear variable-path acoustic interferometer, m1 = 0.0499	1433.3
278.15 K, Frequency=2 MHz, Linear variable-path acoustic interferometer, m1 = 0.0592	1434.2
278.15 K, Frequency=2 MHz, Linear variable-path acoustic interferometer, m1 = 0.0705	1436.3
278.15 K, Frequency=2 MHz, Linear variable-path acoustic interferometer, m1 = 0.0811	1437.4
278.15 K, Frequency=2 MHz, Linear variable-path acoustic interferometer, m1 = 0.0888	1438.7
278.15 K, Frequency=2 MHz, Linear variable-path acoustic interferometer, m1 = 0.1015	1441.1
278.15 K, Frequency=2 MHz, Linear variable-path acoustic interferometer, m1 = 0.1094	1441.3
278.15 K, Frequency=2 MHz, Linear variable-path acoustic interferometer, m1 = 0.1204	1443.8
278.15 K, Frequency=2 MHz, Linear variable-path acoustic interferometer, m1 = 0.1307	1445.3
278.15 K, Frequency=2 MHz, Linear variable-path acoustic interferometer, m1 = 0.1428	1446.5
278.15 K, Frequency=2 MHz, Linear variable-path acoustic interferometer, m1 = 0.1528	1448
288.15 K, Frequency=3 MHz, Sing-around technique in a fixed-path interferometer, m1 = 0.0507	1472.3
288.15 K, Frequency=3 MHz, Sing-around technique in a fixed-path interferometer, m1 = 0.0607	1473.5
288.15 K, Frequency=3 MHz, Sing-around technique in a fixed-path interferometer, m1 = 0.0699	1474.5
288.15 K, Frequency=3 MHz, Sing-around technique in a fixed-path interferometer, m1 = 0.0798	1475.7
288.15 K, Frequency=3 MHz, Sing-around technique in a fixed-path interferometer, m1 = 0.09	1476.9
288.15 K, Frequency=3 MHz, Sing-around technique in a fixed-path interferometer, m1 = 0.0999	1478.3
288.15 K, Frequency=3 MHz, Sing-around technique in a fixed-path interferometer, m1 = 0.1099	1479.2
288.15 K, Frequency=3 MHz, Sing-around technique in a fixed-path interferometer, m1 = 0.1201	1480.4
288.15 K, Frequency=3 MHz, Sing-around technique in a fixed-path interferometer, m1 = 0.1295	1481.6
288.15 K, Frequency=3 MHz, Sing-around technique in a fixed-path interferometer, m1 = 0.1399	1482.8
288.15 K, Frequency=3 MHz, Sing-around technique in a fixed-path interferometer, m1 = 0.1497	1484.3
288.15 K, Frequency=3 MHz, Sing-around technique in a fixed-path interferometer, m1 = 0.16	1485.9
298.15 K, Frequency=3 MHz, Sing-around technique in a fixed-path interferometer, m1 = 0.0405	1501.4
298.15 K, Frequency=3 MHz, Sing-around technique in a fixed-path interferometer, m1 = 0.0504	1502.5
298.15 K, Frequency=3 MHz, Sing-around technique in a fixed-path interferometer, m1 = 0.06	1503.7
298.15 K, Frequency=3 MHz, Sing-around technique in a fixed-path interferometer, m1 = 0.0703	1504.9
298.15 K, Frequency=3 MHz, Sing-around technique in a fixed-path interferometer, m1 = 0.0804	1505.9
298.15 K, Frequency=3 MHz, Sing-around technique in a fixed-path interferometer, m1 = 0.0903	1507.1
298.15 K, Frequency=3 MHz, Sing-around technique in a fixed-path interferometer, m1 = 0.1001	1508.1
298.15 K, Frequency=3 MHz, Sing-around technique in a fixed-path interferometer, m1 = 0.1103	1509.6
298.15 K, Frequency=3 MHz, Sing-around technique in a fixed-path interferometer, m1 = 0.12	1510.3
298.15 K, Frequency=3 MHz, Sing-around technique in a fixed-path interferometer, m1 = 0.1305	1511.4
298.15 K, Frequency=3 MHz, Sing-around technique in a fixed-path interferometer, m1 = 0.1401	1513
298.15 K, Frequency=3 MHz, Sing-around technique in a fixed-path interferometer, m1 = 0.1514	1513.8

Details	mass density [kg/m3]
278.15 K, Pycnometric method, m1 = 0.0389	1001.17
278.15 K, Pycnometric method, m1 = 0.0499	1001.51
278.15 K, Pycnometric method, m1 = 0.0592	1001.8
278.15 K, Pycnometric method, m1 = 0.0705	1002.15
278.15 K, Pycnometric method, m1 = 0.0811	1002.48
278.15 K, Pycnometric method, m1 = 0.0888	1002.72
278.15 K, Pycnometric method, m1 = 0.1015	1003.1
278.15 K, Pycnometric method, m1 = 0.1094	1003.35
278.15 K, Pycnometric method, m1 = 0.1204	1003.7
278.15 K, Pycnometric method, m1 = 0.1307	1004
278.15 K, Pycnometric method, m1 = 0.1428	1004.38
278.15 K, Pycnometric method, m1 = 0.1528	1004.7
288.15 K, Vibrating tube method, m1 = 0.0507	1000.66
288.15 K, Vibrating tube method, m1 = 0.0607	1000.96
288.15 K, Vibrating tube method, m1 = 0.0699	1001.25
288.15 K, Vibrating tube method, m1 = 0.0798	1001.55
288.15 K, Vibrating tube method, m1 = 0.09	1001.87
288.15 K, Vibrating tube method, m1 = 0.0999	1002.17
288.15 K, Vibrating tube method, m1 = 0.1099	1002.46
288.15 K, Vibrating tube method, m1 = 0.1201	1002.78
288.15 K, Vibrating tube method, m1 = 0.1295	1003.07
288.15 K, Vibrating tube method, m1 = 0.1399	1003.4
288.15 K, Vibrating tube method, m1 = 0.1497	1003.7
288.15 K, Vibrating tube method, m1 = 0.16	1004
298.15 K, Vibrating tube method, m1 = 0.0405	998.23
298.15 K, Vibrating tube method, m1 = 0.0504	998.52
298.15 K, Vibrating tube method, m1 = 0.06	998.78
298.15 K, Vibrating tube method, m1 = 0.0703	999.08
298.15 K, Vibrating tube method, m1 = 0.0804	999.37
298.15 K, Vibrating tube method, m1 = 0.0903	999.66
298.15 K, Vibrating tube method, m1 = 0.1001	999.92
298.15 K, Vibrating tube method, m1 = 0.1103	1000.24
298.15 K, Vibrating tube method, m1 = 0.12	1000.51
298.15 K, Vibrating tube method, m1 = 0.1305	1000.78
298.15 K, Vibrating tube method, m1 = 0.1401	1001.06
298.15 K, Vibrating tube method, m1 = 0.1514	1001.39

O [water] + COC(=O)[C@H](C)N.Cl
Details	speed of sound [m/s]
278.15 K, Frequency=2 MHz, Linear variable-path acoustic interferometer, m2 = 0	1426.2

Details	mass density [kg/m3]
278.15 K, Pycnometric method, m2 = 0	999.96
